Earlier results on 2 substances are cited in publication PMC6314896 (Chembiochem : a European journal of chemical biology, 2018).

In the data set the test system is trypsin. The note with it: both toxins under the same conditions.

Consider ProTx-I, for which the “stability to trypsin (in words)” value is given as “degraded rapidly”.

As for ProTx-II, the “stability to trypsin (in words)” value is “completely stable”.
